Measurements published in patent US5126336A, “Antibiotic C-3 catechol-substituted cephalosporin compounds, compositions and method of use thereof” (Bristol-Myers Squibb Company, priority 1990, dated 1992).
≈ marks a conversion by molar mass, not a printed value.

Columns and labels:
Assay in all cases: MIC, agar dilution
Format in all cases: cell-based
S. aureus Smith = details: Staphylococcus aureus; S. aureus Smith; Mueller-Hinton agar pH 7.2; 32° C., 18 hr; 10^6 cells/ml; read-out: MIC
Protocol: (§1) Minimum inhibitory concentrations (MICs) of the present series of cephalosporins were determined against 32 strains of test organisms by two-fold serial agar dilution method in Mueller-Hinton agar. Geometric means of MICs were calculated against six groups of the test organisms which are classified as follows and summarized in Table 1.
(§2) In vivo antibacterial activity was determined against three bacterial infections (S. aureus Smith, E. coli Juhl and P. aeruginosa A9843A) by intramuscular administration to mice just after the bacterial challenge. PD50 values are summarized in Table 3 in comparsion with the MIC values against the corresponding organisms.
(§3) Medium; MuellerHinton agar (pH = 7.2)
(§4) Incubation temperature: 32° C., 18 hr
(§5) Inoculum size; 10^6 cells/ml

P. aeruginosa A9843A = details: Pseudomonas aeruginosa, A9843A, 18 h, pH 7.2
Protocol: as §1, §2, §3, §4, §5

E. coli Juhl A15119 = details: Escherichia coli, JUHLA15119; E. coli Juhl A15119; Mueller-Hinton agar pH 7.2; 32° C., 18 hr; 10^6 cells/ml; read-out: MIC
Protocol: as §1, §2, §3, §4, §5

C. freundii GN 7391 = details: Citrobacter freundii, GN7391, Mueller-Hinton agar pH 7.2, 32° C., 18 hr, 10^6 cells/ml
Protocol: as §1, §3, §4, §5

P. cepacia A21213 = details: Burkholderia cepacia, Mueller-Hinton agar pH 7.2, 32° C., 18 hr, 10^6 cells/ml
Protocol: as §1, §3, §4, §5

P. aeruginosa IPM-8 = details: Pseudomonas aeruginosa, IPM8, Mueller-Hinton agar pH 7.2, 32° C., 18 hr, 10^6 cells/ml
Protocol: as §1, §3, §4, §5

M. luteus 1001 = details: Micrococcus luteus, Mueller-Hinton agar pH 7.2, 32° C., 18 hr, 10^6 cells/ml
Protocol: as §1, §3, §4, §5

X. maltophilia GN 12873 = details: Stenotrophomonas maltophilia, GN12873, Mueller-Hinton agar pH 7.2, 32° C., 18 hr, 10^6 cells/ml
Protocol: as §1, §3, §4, §5

P. aeruginosa KKA 19 = details: Pseudomonas aeruginosa, KKA19, Mueller-Hinton agar pH 7.2, 32° C., 18 hr, 10^6 cells/ml
Protocol: as §1, §3, §4, §5

K. pneumoniae PCI 602 = details: Klebsiella pneumoniae, PCI602, Mueller-Hinton agar pH 7.2, 32° C., 18 hr, 10^6 cells/ml
Protocol: as §1, §3, §4, §5

S. marcescens IPM-15 = details: Serratia marcescens, IPM15, Mueller-Hinton agar pH 7.2, 32° C., 18 hr, 10^6 cells/ml
Protocol: as §1, §3, §4, §5

S. aureus 4-1015 (MRSA) = details: Staphylococcus aureus, Mueller-Hinton agar pH 7.2, 32° C., 18 hr, 10^6 cells/ml
Protocol: as §1, §3, §4, §5

P. cepacia No. 651 = details: Burkholderia cepacia, Mueller-Hinton agar pH 7.2, 32° C., 18 hr, 10^6 cells/ml
Protocol: as §1, §3, §4, §5

P. mirabilis IFO-2849 = details: Proteus mirabilis, IFO2849, Mueller-Hinton agar pH 7.2, 32° C., 18 hr, 10^6 cells/ml
Protocol: as §1, §3, §4, §5

P. rettgeri IPM-14 = details: Providencia rettgeri, IPM14, Mueller-Hinton agar pH 7.2, 32° C., 18 hr, 10^6 cells/ml
Protocol: as §1, §3, §4, §5

P. aeruginosa A20599 = details: Pseudomonas aeruginosa, Mueller-Hinton agar pH 7.2, 32° C., 18 hr, 10^6 cells/ml
Protocol: as §1, §3, §4, §5

S. epidermidis 11-1230 = details: Staphylococcus epidermidis, 111230, Mueller-Hinton agar pH 7.2, 32° C., 18 hr, 10^6 cells/ml
Protocol: as §1, §3, §4, §5

P. vulgaris IPM-13 = details: Proteus vulgaris, IPM13, Mueller-Hinton agar pH 7.2, 32° C., 18 hr, 10^6 cells/ml
Protocol: as §1, §3, §4, §5

C. terrigena IFO 12685 = details: Mueller-Hinton agar pH 7.2, 32° C., 18 hr, 10^6 cells/ml
Protocol: as §1, §3, §4, §5

X. maltophilia No. 661 = details: Stenotrophomonas maltophilia, Mueller-Hinton agar pH 7.2, 32° C., 18 hr, 10^6 cells/ml
Protocol: as §1, §3, §4, §5

P. aeruginosa IPM-9 = details: Pseudomonas aeruginosa, IPM9, Mueller-Hinton agar pH 7.2, 32° C., 18 hr, 10^6 cells/ml
Protocol: as §1, §3, §4, §5

E. coli 255 = details: Escherichia coli, Mueller-Hinton agar pH 7.2, 32° C., 18 hr, 10^6 cells/ml
Protocol: as §1, §3, §4, §5

E. cloacae IPM-12 = details: Enterobacter cloacae, IPM12, Mueller-Hinton agar pH 7.2, 32° C., 18 hr, 10^6 cells/ml
Protocol: as §1, §3, §4, §5

E. faecalis A9808 = details: Enterococcus faecalis, Mueller-Hinton agar pH 7.2, 32° C., 18 hr, 10^6 cells/ml
Protocol: as §1, §3, §4, §5

S. aureus 209P = details: Staphylococcus aureus; S. aureus 209P; Mueller-Hinton agar pH 7.2; 32° C., 18 hr; 10^6 cells/ml; read-out: MIC
Protocol: as §1, §3, §4, §5

E. faecium A24817 = details: Enterococcus faecium, Mueller-Hinton agar pH 7.2, 32° C., 18 hr, 10^6 cells/ml
Protocol: as §1, §3, §4, §5

S. aureus IPM-24 (MRSA) = details: Staphylococcus aureus, Mueller-Hinton agar pH 7.2, 32° C., 18 hr, 10^6 cells/ml
Protocol: as §1, §3, §4, §5

B. subtilis PCI 219 = details: Bacillus subtilis, PCI219, Mueller-Hinton agar pH 7.2, 32° C., 18 hr, 10^6 cells/ml
Protocol: as §1, §3, §4, §5

M. morgani 1510 = details: Mueller-Hinton agar pH 7.2, 32° C., 18 hr, 10^6 cells/ml
Protocol: as §1, §3, §4, §5

M. morgani 1510/9 = details: Mueller-Hinton agar pH 7.2, 32° C., 18 hr, 10^6 cells/ml
Protocol: as §1, §3, §4, §5

S. marcescens IPM-16 = details: Serratia marcescens, IPM16, Mueller-Hinton agar pH 7.2, 32° C., 18 hr, 10^6 cells/ml
Protocol: as §1, §3, §4, §5

CC(C)(O/N=C(\C(=O)NC1C(=O)N2C(C(=O)[O-])=C(/C=C/C[n+]3cc4cc(O)c(O)cc4cn3)CS[C@H]12)c1csc(N)n1)C(=O)O (stereo partly shown) [Ii, 7-[(Z)-2-(2-Aminothiazol-4-yl)-2-(1-methyl-1-carboxyethoxy-imino)acetamido]-3-[(E)-3-(6,7-dihydroxyphthalazin-2-io)-1-propen-1-yl]-3-cephem-4-carboxylate]
MIC (S. aureus Smith): 25 µg/mL (≈ 38.1 µM) | MIC (P. aeruginosa A9843A): 0.1 µg/mL (≈ 0.153 µM) | MIC (E. coli Juhl A15119): 0.2 µg/mL (≈ 0.305 µM) | MIC (C. freundii GN 7391): 25 µg/mL (≈ 38.1 µM) | MIC (P. cepacia A21213): 0.8 µg/mL (≈ 1.22 µM) | MIC (P. aeruginosa IPM-8): 0.2 µg/mL (≈ 0.305 µM) | MIC (M. luteus 1001): 3.1 µg/mL (≈ 4.73 µM) | MIC (X. maltophilia GN 12873): 100 µg/mL (≈ 153 µM) | MIC (P. aeruginosa KKA 19): 0.8 µg/mL (≈ 1.22 µM) | MIC (K. pneumoniae PCI 602): < 6.3 ng/mL | MIC (S. marcescens IPM-15): > 100 µg/mL | MIC (S. aureus 4-1015 (MRSA)): > 100 µg/mL | MIC (P. cepacia No. 651): 1.6 µg/mL (≈ 2.44 µM) | MIC (P. mirabilis IFO-2849): 0.025 µg/mL (≈ 0.0381 µM) | MIC (P. rettgeri IPM-14): 0.1 µg/mL (≈ 0.153 µM) | MIC (P. aeruginosa A20599): 0.2 µg/mL (≈ 0.305 µM) | MIC (S. epidermidis 11-1230): 25 µg/mL (≈ 38.1 µM) | MIC (P. vulgaris IPM-13): 12.5 µg/mL (≈ 19.1 µM) | MIC (C. terrigena IFO 12685): 0.8 µg/mL (≈ 1.22 µM) | MIC (X. maltophilia No. 661): 50 µg/mL (≈ 76.3 µM) | MIC (P. aeruginosa IPM-9): > 100 µg/mL | MIC (E. coli 255): 0.013 µg/mL (≈ 0.0198 µM) | MIC (E. cloacae IPM-12): 0.8 µg/mL (≈ 1.22 µM) | MIC (E. faecalis A9808): > 100 µg/mL | MIC (S. aureus 209P): 25 µg/mL (≈ 38.1 µM) | MIC (E. faecium A24817): > 100 µg/mL | MIC (S. aureus IPM-24 (MRSA)): > 100 µg/mL | MIC (B. subtilis PCI 219): 12.5 µg/mL (≈ 19.1 µM) | MIC (M. morgani 1510): 0.8 µg/mL (≈ 1.22 µM) | MIC (M. morgani 1510/9): 0.05 µg/mL (≈ 0.0763 µM) | MIC (S. marcescens IPM-16): 1.6 µg/mL (≈ 2.44 µM)
